Test results taken from article PMC13267291, “In vivo functional profiling and structural characterization of the human GLP1R A316T variant” (Science Advances, 2026).
Values belong to the substance of their own block, whether it stands above or below them.

Tests used:
[1] = test system: hGLP1R^A316T-SmBiT versus hGLP1R^WT-SmBiT; experiment: β-arrestin 2 recruitment by NanoBiT complementation; assay type: cell-based, rat
Method: For mini-Gs recruitment, INS-1 832/3 Glp1r^−/− cells were seeded in 6-cm dishes and transiently cotransfected with 1.7 μg each of hGLP1R^WT or ^A316T-SmBiT and LgBiT-mini-Gs constructs for 24 hours. Cells were then detached, resuspended in Hanks’ balanced salt solution (HBSS) containing NanoGlo Live Cell Reagent (1:20; Promega) with furimazine, and seeded onto white 96-well half-area plates. Baseline luminescence was immediately recorded over 8 min at 37°C in a Flexstation 3 plate reader (Molecular Devices) and for a further 30 min after GLP-1RA addition at serial doses up to 100 nM. Readings were taken every 30 s and normalized to average well baseline, and average vehicle-induced signal was subtracted to establish the agonist-induced effect. To measure β-arrestin 2 recruitment, cells were processed as above with slight modifications: INS-1 832/3 Glp1r^−/− cells were cotransfected with 1.77 μg each of hGLP1R^WT or ^A316T-SmBiT and LgBiT–β-arrestin 2 plasmids for 24 hours, and GLP-1RAs were added at serial doses up to 1 μM. AUCs were calculated for each agonist concentration and fitted to log(agonist) versus response four-parameter curves using GraphPad Prism 10.1.2, with errors propagated for mini-Gs over β-arrestin 2 recruitment bias calculations.

[2] = test system: hGLP1R^A316T/+ versus hGLP1R^+/+ mice; experiment: IPGTT after GLP-1RA, HFHS-fed heterozygous mice; assay type: in vivo, mouse; settings: HFHS diet; 2 nmol/kg; n = 7; fig. S5G,H
Method: All animal procedures were approved by the British Home Office under the UK animals (Scientific Procedures) Act 1986 (Project License number PP7151519 to A. Martinez-Sanchez, Imperial College London, UK) and from the local ethical committee (Animal Welfare and Ethics Review Board) at the Central Biological Services unit of Imperial College London. Animals were housed in groups of up to four adult mice in individually ventilated cages under controlled conditions at 21° to 23°C with 12-hour:12-hour light-to-dark cycles (lights on at 07:00). Ad libitum access to water and feed was provided unless otherwise stated. Lean mice were fed a standard chow diet [RM1 (E); Special Diet Services]. For HFHS diet studies, animals were put on a 58 kcal % fat and sucrose diet (D12331, Research Diets Inc.) ad libitum for 10 to 14 weeks before experiments.
To examine acute and prolonged glycemic responses to GLP-1RAs, animals were fasted for 2 hours, starting at 8 a.m. on the morning of the experiments, before IPGTTs. GLP-1RAs were then coadministered at the indicated concentrations with 20% (w/v) D-glucose via intraperitoneal injection at weight-adjusted volumes. Baseline glucose readings were taken via tail venipuncture, and subsequent readings were taken at various time points after glucose ± GLP-1RA administration as for the OGTTs (0-hour acute IPGTTs). […]

[3] = test system: SNAP/FLAG-hGLP1R^A316T versus ^WT; experiment: High content microscopy GLP-1R internalization assay; assay type: cell-based, rat; settings: INS-1 832/3 sublines; 5-60 min; AUC; n = 3; Fig. 7G
Method: INS-1 832/3 Glp1r^−/− SNAP/FLAG-hGLP1R^WT or ^A316T cells were seeded onto poly-D-lysine–coated black 96-well plates for 24 hours before the assay. Cells were labeled for 30 min with 1 μM SNAP surface cleavable BG-SS-649 probe at 37°C and washed once with HBSS before treatment with GLP-1RA or vehicle for 60, 30, 15, or 5 min at 37°C in complete medium. Cells were then washed with cold HBSS, and subsequent steps were carried out at 4°C. The cell-impermeable reducing agent Mesna {100 mM in alkaline tris-NaCl-EDTA (TNE) buffer [20 mM tris-HCl, 1 mM EDTA, and 150 mM NaCl (pH 8.6)]} or alkaline TNE buffer without Mesna was applied for 5 min to cleave BG-SS-649 probe left at the cell surface and then washed with HBSS. […] Internalized GLP-1R, indicated by cell-associated fluorescence, was analyzed after flat-field correction of fluorescent images using the BaSiC plugin ([96]), segmentation of cell-containing regions from phase contrast images using Phantast ([97]), and fluorescence intensity quantification. The percentage of internalized receptor was calculated as follows F+Me(tx)/F−Me(tx)−F+Me(t0)/F−Me(t0)/1−F+Me(t0)/F−Me(t0) where F+Me and F−Me are mean fluorescence intensities ± Mesna at times tx (5, 15, 30, or 60 min) or t0 (0 min). […]

Agonist-induced recruitment of β-arrestin 2, A316T versus WT, log(Emax/EC50) ([1]; serial doses up to 1 μM, n = 5, Fig. 7M): near-significant reduction
Substance: exendin-F1
β-arrestin 2 over Gαs signaling bias, A316T versus WT ([1]; Δlog(Emax/EC50) βarr2 − mini-Gs, Fig. 7N): significant shift toward Gαs recruitment

Substance: exendin-4
Desensitization 6 hours postagonist, A316T/+ versus +/+ [2]: significantly increased desensitization

Substance: GLP-1(7-36)NH2
A316T GLP-1R internalization versus WT [3]: significantly increased
